# Laboratory results from patent publication US20070276032A1, “Use of 8-Prenylnaringenin for Hormone Replacement Therapy” (priority 2003, published 2007).
# “And” between values parts separate entries of the source, which are not always exact repeats. Equal entries are not always repeated.
# Experiments:
# ovariectomized rats [1] = test: Relative uterine weight, 2S(−) 8-PN in ovariectomized rats (Example 3); type: in vivo, Sprague-Dawley rats
# Experimental: (§1) The aim of the study was to examine bone and uterine effects of a 4-week treatment with 2S(−) 8-Prenylnaringenin (8-PN) in 3-month-old ovariectomized rats. […] At the end of the study, uterine weight and ex vivo bone mineral density (BMD) of tibia were measured.
# (§2) A total of 30 female 13-14-week-old Sprague-Dawley rats were used in the study. The animals were randomized into 5 groups, with 6 rats/group. Group 1 was sham-operated (SHAM) and groups 2-5 were ovariectomized (OVX).
# (§3) Treatments with the vehicle or test substance started on the day following operation. […] The animals were sacrificed one day after the last dosing. At the end of the study, left tibiae were excised for ex vivo BMD measurement (pQCT) at proximal tibia and uteri were excised for the determination of absolute and relative weights. In addition, samples for the determination of 2S(−)8-Prenylnaringenin concentration were taken from all dosing solutions on the day when they were prepared and on the last day of use. The data of body weights, relative uterine weights and BMD were analyzed with one-way analysis of variance.
# Relative uterine weight was calculated as percentage of body weight
# [2] = Body weight, 8-PN racemic, 2S(−) 8-PN and estradiol hemihydrate in ovariectomized rats (Example 4); type: in vivo, Sprague-Dawley rats; settings: OVX rats; s.c. once a day, 28 days; 20 mg/kg/d in HP-β-CD
# Experimental: (§4) The aim of the study was to directly compare the effects of Prenylnaringenin (racemate) and 2S(−) 8-Prenylnaringenin to the effects of estradiol hemihydrate on bone mineral density and uterine weight on 3-month-old ovariectomized rats using identical formulations. In addition, the effects of estradiolhemihydrate in two vehicles (oily, aqueous) were examined for influence of formulations. The substances were administered subcutaneously(s.c.) seven days a week beginning the day after ovariectomy. At the end of the study, uterine weight and bone mineral density (BMD) of tibia were measured.
# (§5) Forty-one female Sprague-Dawley rats, 12-14 weeks of age were randomized into six groups, 6-8 animals in each. Five groups were ovariectomized (OVX) and one group was sham-operated (SHAM). Treatments started on the day following operation and continued for 28 days. The animals were treated s.c. once a day seven times a week as follows. Group 1 (SHAM vehicle group) and group 2 (OVX vehicle group) were given the vehicle 30% hydroxypropyl-β-cyclodextrin (HP-β-CD). Groups 3 and 4 were administered 4 μg/kg/d of estradiol hemihydrate in vehicle benzyl benzoate/ricinus oil (B/R) and in vehicle HP-β-CD, respectively. Groups 5 and 6 were given 20 mg/kg/d of 2S(−)8-Prenylnaringenin and racemic 8-Prenylnaringenin, respectively, both in vehicle HP-β-CD. At the end of the study, left tibiae were excised for the ex vivo BMD […] were taken from all dosing solutions on the first and last day of use.
# (§6) Vehicle 1 (used in the groups 1 and 2): 30% hydroxypropyl-β-cyclodextrin and 0.3% NaCl (w/v), 5% ethanol (v/v) in Aqua sterilisata, pH 7.4.
# (§7) Vehicle 2 (used when preparing dosing solutions of the groups 4, 5 and 6): 30% hydroxypropyl-β-cyclodextrin and 0.3% NaCl (w/v) in Aqua sterilisata, pH 7.4.
# (§8) Vehicle 3 (used when preparing a dosing solution of the group 3): benzyl benzoate/ricinus oil (B/R) 1+4, v/v.
# ovariectomized rats [3] = test: Ex vivo BMD (pQCT) of proximal tibia, 2S(−) 8-PN in ovariectomized rats (Example 3); set-up: species or system Sprague-Dawley rats; settings: animal study with synthetic relatively pure preparation
# Experimental: as §1, §2, §3
# Bone mineral density measurement was carried out by pQCT (XCT-960A, Stratec, Germany). The bone specimens were thawed before measurement. Six 1 mm-thick sections of the proximal tibia (2 mm below the epiphyseal growth plate) were scanned at 0.5 mm intervals using a voxel size of 0.148 mm. Total and trabecular BMD (mg/cm^3) were measured. After bone densitometry, the specimens were wrapped back to saline saturated gauzes and stored at −20° C.
# [4] = at the bone loss protective dose; Miyamoto et al 1998; cited from earlier work
# ERE-Luc = test: Estrogenic activity in the estrogen reporter mouse ERE-Luc model, luciferase activity in organs (Example 5); type: in vivo, mice
# Experimental: In order to avoid experimental noise male animals were used.
# Fourtyfive heterozygous male ERE-Luc mice of two months of age were fed with soy-free diet for two weeks before assigning them to each experimental group then all the mice were injected intraperitoneally (i.p.) with 250 μl of an oily solution containing the following compounds: • 1. Experimental group 1: vehicle • 2. Experimental group 2: 17β-estradiol at 1.5 μg/kg • 3. Experimental group 3: 2S(−)-8-PN at 30 mg/kg • 4. […] Experimental group 5: genistein at 30 mg/kg.
# The treatment was carried out in experimental groups of three mice each and repeated three times (therefore numbers reflect the average of […] determinations on a total of 9 animals).
# Six hours after the injection, mice were sacrificed by cervical dislocation and organs were dissected and frozen on dry ice. The following organs were analyzed for lucifererase activity by enzymatic assay: prostate, liver, bone, brain.
# Data represent means ±standard deviation of N=9 animals per group.
# Analysis of variance (ANOVA) for overall comparison was followed by Tukey test for paired comparisons. All statistical procedures were carried out with Systat and SAS (*P<0.05; **P<0.01).
# [5] = reported; cited from earlier work
# ovariectomized rats [6] = test: Trabecular density of proximal tibia, 8-PN racemic, 2S(−) 8-PN and estradiol hemihydrate in ovariectomized rats (Example 4); type: in vivo, Sprague-Dawley rats; settings: OVX rats; s.c. 28 days; 20 mg/kg/d in HP-β-CD
# Experimental: as §4, §5, §6, §7, §8
# ovariectomized rats [7] = test: Relative uterus weight, 8-PN racemic, 2S(−) 8-PN and estradiol hemihydrate in ovariectomized rats (Example 4); type: in vivo, Sprague-Dawley rats; settings: OVX rats
# Experimental: as §4, §5, §6, §7, §8
# [8] = s.c. 28 days, 20 mg/kg/d in HP-β-CD, calculated as percentage of body weight
structure (smiles),measurement,setting,value
"CC(C)=CCc1c(O)cc(O)c2c1OC(c1ccc(O)cc1)CC2=O (racemic) [8-Prenylnaringenin, 5,7-Dihydroxy-2-(4-hydroxyphenyl)-8-(3-methylbut-2-enyl)-chroman-4-on]",effect on uterus growth and endometrial stimulation,ovariectomized rats [1]; animal study with synthetic relatively pure preparation,only a minimal and dose independent effect on uterus growth and endometrial stimulation
same,effect on uterus proliferation relative to that of estradiol,ovariectomized rats [1]; doses equi-effective on protection of bone loss,less than ⅕ and 1/10
same,"estrogenic effect on the uterus, equivalent oral estradiol dose",ovariectomized rats [1]; extended to women treated with a bone protective dose,0.1 to 0.2 mg/day
same,Body weight at The end (bw4b),[2],289(8) g
same,The change in Body weight (bw4b-bw0),[2],27(2) g
same,effect on bone loss,ovariectomized rats [3],prevents bone loss in a dose dependent manner
same,effect on uterus growth,[4],significant effect on uterus growth at the bone loss protective dose
same,estrogenic effect in bone and prostate tissue relative to estradiol,ERE-Luc; estimated at dosages leading to the same liver estrogenicity,twofold higher estrogenic effect in bone and prostate tissue than estradiol
same,"Luciferase activity, Prostate","ERE-Luc; male ERE-Luc mice, i.p. 30 mg/kg, six hours after the injection, controls 0.5",0.9 ** arbitrary units
same,estrogenic activity relative to genistein,[5],at least one order of magnitude higher than that of the isoflavone genistein
same,"Trabecular density at left proximal tibia, Mean",ovariectomized rats [6],351 mg/cm3
same,"Trabecular density at left proximal tibia, Median",ovariectomized rats [6],351 mg/cm3
same,effect on the uterus and body weight compared with estradiol in the same vehicle (HP-β-CD),"ovariectomized rats [7]; 20 mg/kg/d vs estradiol 4 μg/kg/d, same bone effective dose",much lower effect on the uterus and body weight than estradiol at the same bone effective dose
same,"Relative uterus weight, Mean",ovariectomized rats [7]; [8],0.066
same,"Relative uterus weight, Median",ovariectomized rats [7]; [8],0.065
